Patent US20160158179A1, “NANOEMULSION THERAPEUTIC COMPOSITIONS AND METHODS OF USING THE SAME” (THE REGENTS OF THE UNIVERSITY OF MICHIGAN, priority 2008, published 2016)
≈ marks a conversion by molar mass, not a printed value.

How the values were obtained:
Acinetobacter baumannii = test: MIC and MBC determination (CLSI, alamar blue); details: Acinetobacter
Burkholderia strains = test: Checkerboard synergy study (FIC/FBC index); type: cell-based, Burkholderia cenocepacia; details: Burkholderia; in combination with P4075EC+EDTA
[1] = tested on: Stenotrophomonas maltophilia; test: MIC and MBC determination (CLSI, alamar blue), CF isolates
Acinetobacter strains = test: Checkerboard synergy study (FIC/FBC index); type: cell-based, Acinetobacter baumannii; details: Acinetobacter; in combination with P4075EC+EDTA
Burkholderia cepacia = test: MIC determination, CLSI microdilution with alamar blue; type: cell-based; details: Burkholderia cepacia (n = 5); nanoemulsions in the presence of 5 mM EDTA
Pseudomonas aeruginosa = test: MIC and MBC determination (CLSI, alamar blue), CF isolates; details: Pseudomonas
Burkholderia cenocepacia = test: as above
Stenotrophomonas strains = test: Checkerboard synergy study (FIC/FBC index); type: cell-based, Stenotrophomonas maltophilia; details: Stenotrophomonas; in combination with P4075EC+EDTA
Proteus mirabilis = test: MIC determination, CLSI microdilution with alamar blue; type: cell-based; details: Proteus mirabilis (n = 5); nanoemulsions in the presence of 5 mM EDTA; in µg/mL

NC[C@H]1O[C@H](O[C@H]2[C@H](O)[C@@H](O[C@H]3O[C@H](CO)[C@@H](O)[C@H](N)[C@H]3O)[C@H](N)C[C@@H]2N)[C@H](N)C[C@@H]1O [Tobramycin]
MIC 50 (Acinetobacter baumannii): 1 µg/mL (≈ 2.14 µM) | MIC 90 (Acinetobacter baumannii): 16 µg/mL (≈ 34.2 µM) | Overall synergy result (Burkholderia strains): No Interference | MIC 50 ([1]; Stenotrophomonas): >32 µg/mL | MIC 90 ([1]; Stenotrophomonas): >32 µg/mL | MIC 50 ([1]; Stenotrophomonas maltophilia): > 32 µg/mL | MIC 90 ([1]; Stenotrophomonas maltophilia): > 32 µg/mL | Overall synergy result (Acinetobacter strains): No Interference | MIC 50 (Burkholderia cepacia): 16 µg/mL | MIC 50 (Pseudomonas aeruginosa): 1 µg/mL (≈ 2.14 µM) | MIC 90 (Pseudomonas aeruginosa): 16 µg/mL (≈ 34.2 µM) | MIC 90 (Burkholderia cenocepacia; Burkholderia): >32 µg/mL | MIC 50 (Burkholderia cenocepacia; Burkholderia cenocepacia): > 32 µg/mL | MIC 90 (Burkholderia cenocepacia; Burkholderia cenocepacia): > 32 µg/mL | Overall synergy result (Stenotrophomonas strains): No Interference

Piperacillin/tazobactam
MIC Range (Proteus mirabilis): <=0.5-1
